Our source for the FDCA solubility values is patent publication US10654819B2, “Processes for the preparation of 2,5-furandicarboxylic acid and intermediates and derivatives thereof” (Stora Enso Oyj, priority 2016, dated 2020).

A short description of data set [1]: FDCA solubility studies in various solvent compositions, visual inspection of dissolution (Example 23). In kind it is physicochemical. The procedure: A series of samples containing various amounts of FDCA and mixed solvent compositions were prepared in sealed pressure ampules (typically containing 2-5 g material (FDCA and solvent composition)). For example, 200 mg FDCA, 900 mg NMP, and 900 mg de-ionized water were added to an 8 mL glass vial with a stir bar inside, corresponding to a mixture containing 10 wt % FDCA. Other samples corresponding to different wt % FDCA samples in various mixed solvent compositions were prepared in a similar manner. […] The reported FDCA solubility in Table 11 represents the maximum wt % FDCA that can be dissolved in the given solvent composition using this testing method.

Data set [2] can be described thus: FDCA solubility characterization in candidate solvents (Example 1). The data set is classed as physicochemical. On the procedure: Solvents were screened for the ability to dissolve FDCA. 10 ml of a candidate solvent was heated to a certain temperature and FDCA (Product No. F0710, TCI America) was added by small portions to the heated candidate solvent until the FDCA amount exceeded the solubility limit. After that, small volumes of solvent were added until the excess solids were completely dissolved. The experiment was repeated two times at each temperature and the average was taken as FDCA solubility. Five solvents were tested: (1) deionized water; (2) diglyme; (3) dioxane; (4) a 1:1 by volume mixture of diglyme with deionized water; and (5) a 4:1 by volume mixture of dioxane with deionized water. The results are depicted in FIG. 3 as a plot of FDCA Solubility (Weight %) as a function of temperature (° C.). […] However, when each of the organic solvents was combined with water, the resulting co-solvent appeared to provide a synergistic enhancement in FDCA solubilizing capability. […] Similarly, at 100° C., although FDCA solubility in water and dioxane individually was less than 1% (by weight) and less than 2% (by weight), respectively, the FDCA solubility trend line for the co-solvent system of 1:4 ratio of deionized water:dioxane, by volume, indicates 9% (by weight) FDCA solubility.

For the compound `O=C(O)c1ccc(C(=O)O)o1` [FDCA, 2,5-furandicarboxylic acid], the FDCA solubility amounted to 7.0 wt. % in data set [1] (Bu^tOH 50 wt. % / H2O 50 wt. %, 100 ° C.); 7.5 wt. % in data set [1] (Bu^tOH 75 wt. % / H2O 25 wt. %, 100 ° C.); 5.5 wt. % in data set [1] (MEK 25 wt. % / H2O 75 wt. %, 100 ° C.); 4.0 wt. % in data set [1] (MEK 90 wt. % / H2O 10 wt. %, 100 ° C.); 0.3 wt. % in data set [1] (NMP 20 wt. % / H2O 80 wt. %, 23 ° C.); 4.0 wt. % in data set [1] (NMP 20 wt. % / H2O 80 wt. %, 100 ° C.). Besides, the FDCA solubility in data set [1] (NMP 20 wt. % / H2O 80 wt. %, 120 ° C.) was found to be 7.5 wt. %; in data set [1] (NMP 35 wt. % / H2O 65 wt. %, 23 ° C.), 0.5 wt. %; in data set [1] (NMP 35 wt. % / H2O 65 wt. %, 100 ° C.), 9.0 wt. %; in data set [1] (NMP 35 wt. % / H2O 65 wt. %, 120 ° C.), 13.5 wt. %; in data set [1] (NMP 50 wt. % / H2O 50 wt. %, 100 ° C.), 14.5 wt. %; in data set [1] (NMP 50 wt. % / H2O 50 wt. %, 120 ° C.), 19.5 wt. %. The FDCA solubility in data set [1] (gamma-valerolactone 25 wt. % / H2O 75 wt. %, 100 ° C.) is given as 4.0 wt. %; in data set [1] (gamma-valerolactone 50 wt. % / H2O 50 wt. %, 100 ° C.), 7.0 wt. %; in data set [1] (gamma-valerolactone 75 wt. % / H2O 25 wt. %, 100 ° C.), 6.5 wt. %; in data set [2] (in 1:1 deionized water:diglyme by volume, 100° C.), 9 % (by weight); in data set [2] (in 1:4 deionized water:dioxane by volume, 100° C., from trend line), 9 % (by weight); in data set [2] (in diglyme, 22° C. to 100° C.), “less than 2 % by weight”. Further, the FDCA solubility entry is “less than 2 % (by weight)” in data set [2] (in diglyme, 100° C.); “less than 2 % by weight” in data set [2] (in dioxane, 22° C. to 100° C.); “less than 2 % (by weight)” in data set [2] (in dioxane, 100° C.); “less than 2 % by weight” in data set [2] (in water, 22° C. to 140° C.); “less than 1 % (by weight)” in data set [2] (in water, 100° C.).
